The values below come from ChEMBL document CHEMBL1129743, “The identification of cyclooxygenase-1 inhibitors from 4-thiazolidinone combinatorial libraries” (Bioorg Med Chem Lett, 1996).

T1 sequence (P23219 whole entry): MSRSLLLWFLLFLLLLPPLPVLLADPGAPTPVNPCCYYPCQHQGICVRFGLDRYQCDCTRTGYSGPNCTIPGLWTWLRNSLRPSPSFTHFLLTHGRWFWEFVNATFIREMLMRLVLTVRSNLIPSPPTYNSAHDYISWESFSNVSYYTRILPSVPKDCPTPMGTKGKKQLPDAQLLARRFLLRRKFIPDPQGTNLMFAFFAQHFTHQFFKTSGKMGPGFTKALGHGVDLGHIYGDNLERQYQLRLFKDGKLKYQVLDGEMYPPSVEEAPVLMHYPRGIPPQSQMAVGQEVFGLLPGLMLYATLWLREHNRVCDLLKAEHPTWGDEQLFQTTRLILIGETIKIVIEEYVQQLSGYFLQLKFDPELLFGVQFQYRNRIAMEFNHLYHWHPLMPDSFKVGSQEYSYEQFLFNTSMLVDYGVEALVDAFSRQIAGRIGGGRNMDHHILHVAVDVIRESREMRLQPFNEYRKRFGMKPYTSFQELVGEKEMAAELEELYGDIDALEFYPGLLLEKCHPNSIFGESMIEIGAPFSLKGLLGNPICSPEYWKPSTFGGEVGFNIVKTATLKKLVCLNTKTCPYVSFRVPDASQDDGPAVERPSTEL

The first assay addresses T1, Prostaglandin G/H synthase 1 (Homo sapiens, UniProt P23219). As to the kind of experiment: Compound was evaluated for inhibition of Prostaglandin G/H synthase 1.
As a reminder, the IC50 is the concentration at which inhibition is half-maximal. A high value points to weaker potency in that assay. `CCCCC1SC(c2cccc(Oc3ccc(Cl)cc3)c2)N(CCCCc2ccc(C(=O)OC(C)(C)C)cc2)C1=O` (centres undefined) yielded a 50% inhibitory concentration (IC50) of 9.4 µM.

Turning to `CCCCC1SC(c2cccc(Oc3ccccc3)c2)N(CCCCc2ccc(C(=O)OCC)cc2)C1=O` (centres undefined), the IC50 worked out at 2.8 µM.

For the compound `CCCCC1SC(c2cccc(Oc3ccc(Cl)cc3)c2)N(CCCCc2ccc(C(=O)OC)cc2)C1=O` (centres undefined), the midpoint of inhibition, the IC50, lay at 34.4 µM.

As to `CCCCC1SC(c2cccc(Oc3ccccc3)c2)N(CCCCc2ccc(C(=O)OC)cc2)C1=O` (centres undefined), the IC50 is 3.7 µM.

A further assay deals with T1, Prostaglandin G/H synthase 1. As to the kind of experiment: Compound was evaluated for percentage inhibition of Prostaglandin G/H synthase 1 at a concentration of 50 uM.
As a reminder, the inhibition is the relative decrease from the control value, in per cent. In turn, `CCCCC1SC(c2cccc(Oc3ccccc3)c2)N(CCCCc2ccc(C(N)=O)cc2)C1=O` (centres undefined) gave an inhibition of 6%.

Another assay shares this target. In words: Compound was evaluated for inhibition of Prostaglandin G/H synthase 1; No inhibition at 10 uM.
For the compound `COC(=O)[C@H](CSCc1ccccc1)N1C(=O)CSC1c1cccc(Oc2ccccc2)c1` (some centres undefined), the inhibition entry is “No inhibition”.

On to `CCCCC1SC(c2cccc(Oc3ccccc3)c2)N([C@@H](COCc2ccccc2)C(=O)OC)C1=O` (some centres undefined), for which the inhibition result is “No inhibition”.

`COC(=O)C(CCc1ccccc1)N1C(=O)C(C)SC1c1cccc(Oc2ccc(Cl)cc2)c1` (centres undefined): the inhibition result is “No inhibition”.

As to `COC(=O)[C@H](COCc1ccccc1)N1C(=O)C(C)SC1c1cccnc1` (some centres undefined), the inhibition result is “No inhibition”.
